Source: ChEMBL document CHEMBL5233266, “β-Carboline as a Privileged Scaffold for Multitarget Strategies in Alzheimer's Disease Therapy” (J Med Chem, 2021)
Blank lines part the entries; values can stand above or below the compound they belong to.

Assays:
[1] = target: cGMP-specific 3',5'-cyclic phosphodiesterase (Homo sapiens, UniProt O76074); assay: Binding affinity to PDE5 (unknown origin) assessed as inhibition constant
[2] = target: 5-hydroxytryptamine receptor 5A (Homo sapiens, UniProt P47898); assay: Binding affinity to 5-HT5AR (unknown origin) assessed as inhibition constant
[3] = target: 5-hydroxytryptamine receptor 2B (Homo sapiens, UniProt P41595); assay: Binding affinity to 5-HT2BR (unknown origin) assessed as inhibition constant
[4] = target: T1, 5-hydroxytryptamine receptor 2C (Homo sapiens, UniProt P28335); assay: Binding affinity to 5-HT2C (unknown origin) assessed as inhibition constant
T1 sequence (P28335 whole entry): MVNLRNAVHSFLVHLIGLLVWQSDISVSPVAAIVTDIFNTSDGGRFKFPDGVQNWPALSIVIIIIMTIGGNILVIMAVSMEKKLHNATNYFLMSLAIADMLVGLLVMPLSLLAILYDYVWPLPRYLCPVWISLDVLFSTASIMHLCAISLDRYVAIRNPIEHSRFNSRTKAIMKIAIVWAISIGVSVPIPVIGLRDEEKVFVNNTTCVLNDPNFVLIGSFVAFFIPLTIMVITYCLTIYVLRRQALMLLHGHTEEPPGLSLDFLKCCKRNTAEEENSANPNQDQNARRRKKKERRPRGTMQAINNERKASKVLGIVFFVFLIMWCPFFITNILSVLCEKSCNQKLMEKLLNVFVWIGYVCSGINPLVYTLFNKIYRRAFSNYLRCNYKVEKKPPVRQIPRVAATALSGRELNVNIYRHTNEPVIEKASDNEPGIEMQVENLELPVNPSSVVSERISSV

[5] = target: 5-hydroxytryptamine receptor 2A (Rattus norvegicus, UniProt P14842); assay: Displacement of [3H]-ketanserin from rat 5-HT2A expressed in mouse NIH/3T3 cells assessed as inhibition constant by Cheng-Prusoff equation analysis; type: cell-based
[6] = target: Glutamate receptor ionotropic, NMDA 2B (Homo sapiens, UniProt Q05586+Q13224); assay: Inhibition of NMDA receptor NR2B subunit (unknown origin)
Acetylcholinesterase [7] = target: T2, Acetylcholinesterase (Homo sapiens, UniProt P22303); assay: Inhibition of AChE (unknown origin) by Ellman's method
Cholinesterase = Cholinesterase (Homo sapiens, UniProt P06276); assay: Inhibition of BuChE (unknown origin)
Acetylcholinesterase [8] = target: T2, Acetylcholinesterase; assay: Inhibition of AChE (unknown origin)
[9] = target: GABA-A receptor; anion channel; assay: Displacement of [3H]flunitrazepam from GABAA (unknown origin ) receptor by radioligand binding assay; type: protein-complex assay, Homo sapiens
[10] = target: Dual specificity tyrosine-phosphorylation-regulated kinase 1A (Homo sapiens, UniProt Q13627); assay: Inhibition of DYRK1A (unknown origin)
[11] = target: T3, Gamma-aminobutyric acid receptor subunit alpha-3 (Homo sapiens, UniProt P34903); assay: Binding affinity to human recombinant GABAA alpha3 receptor assessed as inhibition constant incubated for 1 hrs by liquid scintillation counting analysis
T3 sequence (P34903 whole entry): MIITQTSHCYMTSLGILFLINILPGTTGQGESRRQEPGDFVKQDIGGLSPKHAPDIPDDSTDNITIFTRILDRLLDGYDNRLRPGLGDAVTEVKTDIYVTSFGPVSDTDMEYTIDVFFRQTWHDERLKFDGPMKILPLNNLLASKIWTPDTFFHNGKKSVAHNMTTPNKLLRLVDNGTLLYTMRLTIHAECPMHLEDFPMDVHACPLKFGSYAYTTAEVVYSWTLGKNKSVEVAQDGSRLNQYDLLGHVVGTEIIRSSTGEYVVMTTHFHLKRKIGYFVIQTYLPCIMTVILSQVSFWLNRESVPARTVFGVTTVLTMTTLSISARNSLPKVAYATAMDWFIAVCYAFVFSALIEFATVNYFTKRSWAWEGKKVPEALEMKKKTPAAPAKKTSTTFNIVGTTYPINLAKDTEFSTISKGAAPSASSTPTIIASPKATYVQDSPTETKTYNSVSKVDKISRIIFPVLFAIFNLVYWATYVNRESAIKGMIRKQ

[12] = target: T4, Gamma-aminobutyric acid receptor subunit alpha-1 (Homo sapiens, UniProt P14867); assay: Binding affinity to human recombinant GABAA alpha1 receptor assessed as inhibition constant incubated for 1 hrs by liquid scintillation counting analysis
T4 sequence (P14867 whole entry): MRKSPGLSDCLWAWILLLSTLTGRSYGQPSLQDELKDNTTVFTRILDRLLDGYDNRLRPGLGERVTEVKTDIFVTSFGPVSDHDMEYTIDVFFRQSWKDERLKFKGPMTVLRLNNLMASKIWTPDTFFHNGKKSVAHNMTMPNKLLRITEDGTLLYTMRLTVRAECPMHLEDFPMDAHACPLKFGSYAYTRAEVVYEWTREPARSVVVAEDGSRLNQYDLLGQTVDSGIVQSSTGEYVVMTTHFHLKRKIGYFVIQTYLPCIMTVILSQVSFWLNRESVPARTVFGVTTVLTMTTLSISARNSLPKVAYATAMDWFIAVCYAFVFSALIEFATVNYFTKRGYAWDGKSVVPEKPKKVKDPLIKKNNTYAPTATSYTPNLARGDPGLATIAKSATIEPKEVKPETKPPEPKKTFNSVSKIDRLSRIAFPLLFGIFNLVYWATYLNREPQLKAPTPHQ

[13] = target: T5, Gamma-aminobutyric acid receptor subunit alpha-2 (Homo sapiens, UniProt P47869); assay: Binding affinity to human recombinant GABAA alpha2 receptor assessed as inhibition constant incubated for 1 hrs by liquid scintillation counting analysis
T5 sequence (P47869 whole entry): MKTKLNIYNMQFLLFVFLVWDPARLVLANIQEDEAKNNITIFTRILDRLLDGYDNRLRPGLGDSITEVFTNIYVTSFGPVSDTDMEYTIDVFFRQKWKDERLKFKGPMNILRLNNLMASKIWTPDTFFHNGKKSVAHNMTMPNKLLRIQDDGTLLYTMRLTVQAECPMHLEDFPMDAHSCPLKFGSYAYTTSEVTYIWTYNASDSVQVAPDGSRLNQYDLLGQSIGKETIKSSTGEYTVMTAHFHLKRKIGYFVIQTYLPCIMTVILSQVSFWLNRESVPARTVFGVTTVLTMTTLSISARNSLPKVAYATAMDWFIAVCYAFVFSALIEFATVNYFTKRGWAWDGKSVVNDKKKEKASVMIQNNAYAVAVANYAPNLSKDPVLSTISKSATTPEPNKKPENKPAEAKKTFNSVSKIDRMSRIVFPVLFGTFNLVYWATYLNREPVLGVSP

[14] = target: T6, Gamma-aminobutyric acid receptor subunit alpha-5 (Homo sapiens, UniProt P31644); assay: Binding affinity to human recombinant GABAA alpha5 receptor assessed as inhibition constant incubated for 1 hrs by liquid scintillation counting analysis
T6 sequence (P31644 whole entry): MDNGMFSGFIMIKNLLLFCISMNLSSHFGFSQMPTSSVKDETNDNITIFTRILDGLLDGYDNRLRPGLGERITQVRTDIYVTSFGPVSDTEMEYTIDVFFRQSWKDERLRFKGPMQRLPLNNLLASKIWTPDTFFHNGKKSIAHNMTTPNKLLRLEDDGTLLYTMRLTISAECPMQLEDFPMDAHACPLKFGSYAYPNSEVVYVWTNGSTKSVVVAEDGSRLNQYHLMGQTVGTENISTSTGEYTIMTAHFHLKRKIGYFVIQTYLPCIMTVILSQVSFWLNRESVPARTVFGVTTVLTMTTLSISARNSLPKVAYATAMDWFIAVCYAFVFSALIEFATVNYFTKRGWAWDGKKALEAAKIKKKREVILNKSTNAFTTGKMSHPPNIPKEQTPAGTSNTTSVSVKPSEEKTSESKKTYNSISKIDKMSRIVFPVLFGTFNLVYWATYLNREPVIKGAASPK

[15] = target: Gamma-aminobutyric acid receptor subunit alpha-4 (Homo sapiens, UniProt P48169); assay: Binding affinity to human recombinant GABAA alpha4 receptor assessed as inhibition constant incubated for 1 hrs by liquid scintillation counting analysis
[16] = target: Gamma-aminobutyric acid receptor subunit alpha-6 (Homo sapiens, UniProt Q16445); assay: Binding affinity to human recombinant GABAA alpha6 receptor assessed as inhibition constant incubated for 1 hrs by liquid scintillation counting analysis
[17] = target: T7, Amine oxidase [flavin-containing] A (Homo sapiens, UniProt P21397); assay: Inhibition of MAO-A (unknown origin)
T7 sequence (P21397 whole entry): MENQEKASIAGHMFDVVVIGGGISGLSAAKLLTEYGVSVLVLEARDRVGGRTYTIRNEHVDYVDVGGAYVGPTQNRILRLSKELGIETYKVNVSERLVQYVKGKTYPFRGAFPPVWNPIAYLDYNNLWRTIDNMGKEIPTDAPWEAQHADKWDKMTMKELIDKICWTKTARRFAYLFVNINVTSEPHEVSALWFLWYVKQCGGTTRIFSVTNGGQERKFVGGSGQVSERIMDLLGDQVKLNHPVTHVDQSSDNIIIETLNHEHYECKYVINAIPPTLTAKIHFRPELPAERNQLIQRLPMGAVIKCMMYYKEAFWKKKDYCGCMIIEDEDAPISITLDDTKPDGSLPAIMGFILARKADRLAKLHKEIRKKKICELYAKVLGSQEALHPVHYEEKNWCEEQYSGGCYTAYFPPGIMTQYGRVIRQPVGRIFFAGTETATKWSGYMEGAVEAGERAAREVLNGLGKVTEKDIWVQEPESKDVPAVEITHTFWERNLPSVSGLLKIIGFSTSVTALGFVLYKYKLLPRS

T2 sequence (P22303 whole entry): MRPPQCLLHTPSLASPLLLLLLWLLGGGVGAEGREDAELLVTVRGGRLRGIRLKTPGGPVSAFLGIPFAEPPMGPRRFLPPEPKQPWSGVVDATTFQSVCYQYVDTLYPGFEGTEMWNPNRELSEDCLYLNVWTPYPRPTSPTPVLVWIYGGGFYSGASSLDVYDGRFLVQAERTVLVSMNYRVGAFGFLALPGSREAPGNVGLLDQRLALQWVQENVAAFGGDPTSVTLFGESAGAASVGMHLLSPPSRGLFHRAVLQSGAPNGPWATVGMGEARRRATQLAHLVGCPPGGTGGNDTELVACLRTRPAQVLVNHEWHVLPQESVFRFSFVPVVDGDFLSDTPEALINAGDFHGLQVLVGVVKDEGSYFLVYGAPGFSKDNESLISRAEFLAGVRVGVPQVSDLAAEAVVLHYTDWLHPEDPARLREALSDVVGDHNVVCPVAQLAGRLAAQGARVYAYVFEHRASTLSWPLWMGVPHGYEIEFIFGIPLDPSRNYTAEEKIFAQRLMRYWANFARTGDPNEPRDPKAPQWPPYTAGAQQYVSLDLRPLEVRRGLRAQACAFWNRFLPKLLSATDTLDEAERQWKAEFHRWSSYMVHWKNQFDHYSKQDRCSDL
Sequence of Cholinesterase (P06276 whole entry): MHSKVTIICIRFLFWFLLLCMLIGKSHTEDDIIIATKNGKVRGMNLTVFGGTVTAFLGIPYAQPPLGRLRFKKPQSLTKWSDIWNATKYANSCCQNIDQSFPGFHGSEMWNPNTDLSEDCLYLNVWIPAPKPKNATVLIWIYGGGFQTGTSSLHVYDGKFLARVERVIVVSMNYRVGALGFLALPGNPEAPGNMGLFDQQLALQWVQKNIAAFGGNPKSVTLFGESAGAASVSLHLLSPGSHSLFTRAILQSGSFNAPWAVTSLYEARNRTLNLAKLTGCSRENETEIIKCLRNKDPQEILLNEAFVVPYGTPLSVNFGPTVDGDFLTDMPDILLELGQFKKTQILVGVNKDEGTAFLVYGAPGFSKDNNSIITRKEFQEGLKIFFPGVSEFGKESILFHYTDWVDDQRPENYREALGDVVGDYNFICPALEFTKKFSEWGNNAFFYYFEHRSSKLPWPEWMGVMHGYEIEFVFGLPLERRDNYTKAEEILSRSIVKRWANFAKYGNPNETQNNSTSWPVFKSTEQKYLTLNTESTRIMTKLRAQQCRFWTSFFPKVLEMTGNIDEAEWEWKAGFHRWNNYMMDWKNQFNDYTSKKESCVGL
Sequence of Glutamate receptor ionotropic, NMDA 2B (Q13224 whole entry, one chain of several): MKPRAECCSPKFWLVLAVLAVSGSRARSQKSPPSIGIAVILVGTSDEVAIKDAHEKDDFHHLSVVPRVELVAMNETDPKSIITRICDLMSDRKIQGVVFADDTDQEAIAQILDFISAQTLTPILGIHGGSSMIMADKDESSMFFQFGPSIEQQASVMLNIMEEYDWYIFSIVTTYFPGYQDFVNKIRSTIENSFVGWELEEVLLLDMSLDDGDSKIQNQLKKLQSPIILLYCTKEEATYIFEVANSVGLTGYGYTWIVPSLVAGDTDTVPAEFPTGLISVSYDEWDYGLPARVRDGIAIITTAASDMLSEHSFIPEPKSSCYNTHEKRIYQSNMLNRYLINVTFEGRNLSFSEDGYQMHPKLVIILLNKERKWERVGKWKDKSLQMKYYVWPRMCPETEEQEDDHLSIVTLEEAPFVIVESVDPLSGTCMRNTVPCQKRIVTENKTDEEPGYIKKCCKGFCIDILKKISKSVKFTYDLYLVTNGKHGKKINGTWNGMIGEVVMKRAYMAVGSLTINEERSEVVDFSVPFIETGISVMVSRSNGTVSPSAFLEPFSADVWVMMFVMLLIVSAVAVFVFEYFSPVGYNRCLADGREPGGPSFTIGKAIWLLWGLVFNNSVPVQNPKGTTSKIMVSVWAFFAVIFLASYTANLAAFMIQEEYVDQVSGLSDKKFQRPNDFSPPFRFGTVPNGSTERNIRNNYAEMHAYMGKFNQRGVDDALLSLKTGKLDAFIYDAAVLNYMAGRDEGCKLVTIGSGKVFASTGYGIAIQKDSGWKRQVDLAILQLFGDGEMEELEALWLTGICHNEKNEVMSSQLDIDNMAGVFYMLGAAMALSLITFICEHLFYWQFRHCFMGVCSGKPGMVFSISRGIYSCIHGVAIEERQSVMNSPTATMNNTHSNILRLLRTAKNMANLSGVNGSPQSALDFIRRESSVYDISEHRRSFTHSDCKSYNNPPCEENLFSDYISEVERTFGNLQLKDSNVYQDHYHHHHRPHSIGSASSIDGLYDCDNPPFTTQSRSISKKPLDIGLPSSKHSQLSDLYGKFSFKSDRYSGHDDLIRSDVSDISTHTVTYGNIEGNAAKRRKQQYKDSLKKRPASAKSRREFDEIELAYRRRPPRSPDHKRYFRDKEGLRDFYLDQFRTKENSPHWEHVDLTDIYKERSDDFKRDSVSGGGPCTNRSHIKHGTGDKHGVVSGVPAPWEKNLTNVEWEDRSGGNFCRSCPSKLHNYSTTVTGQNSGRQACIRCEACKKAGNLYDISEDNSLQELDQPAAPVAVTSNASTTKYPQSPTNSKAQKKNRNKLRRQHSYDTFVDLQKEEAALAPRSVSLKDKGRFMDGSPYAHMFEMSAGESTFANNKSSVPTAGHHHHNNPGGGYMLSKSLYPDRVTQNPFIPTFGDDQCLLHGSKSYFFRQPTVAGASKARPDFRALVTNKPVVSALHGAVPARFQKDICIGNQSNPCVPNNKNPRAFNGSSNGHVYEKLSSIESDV
Sequence of 5-hydroxytryptamine receptor 2B (P41595 whole entry): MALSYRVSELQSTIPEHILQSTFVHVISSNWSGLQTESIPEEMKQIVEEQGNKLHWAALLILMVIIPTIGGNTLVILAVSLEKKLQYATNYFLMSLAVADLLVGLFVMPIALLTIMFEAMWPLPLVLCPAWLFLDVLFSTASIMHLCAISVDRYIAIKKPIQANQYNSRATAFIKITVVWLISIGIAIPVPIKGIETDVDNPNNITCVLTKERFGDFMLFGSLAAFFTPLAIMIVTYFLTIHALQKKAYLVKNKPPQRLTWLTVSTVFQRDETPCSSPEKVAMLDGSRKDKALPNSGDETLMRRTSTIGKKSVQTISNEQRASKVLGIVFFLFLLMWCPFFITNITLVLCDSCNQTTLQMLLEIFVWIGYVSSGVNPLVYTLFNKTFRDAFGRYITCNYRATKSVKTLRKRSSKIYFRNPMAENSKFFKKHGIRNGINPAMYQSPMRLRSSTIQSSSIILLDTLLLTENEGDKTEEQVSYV
Sequence of 5-hydroxytryptamine receptor 5A (P47898 whole entry): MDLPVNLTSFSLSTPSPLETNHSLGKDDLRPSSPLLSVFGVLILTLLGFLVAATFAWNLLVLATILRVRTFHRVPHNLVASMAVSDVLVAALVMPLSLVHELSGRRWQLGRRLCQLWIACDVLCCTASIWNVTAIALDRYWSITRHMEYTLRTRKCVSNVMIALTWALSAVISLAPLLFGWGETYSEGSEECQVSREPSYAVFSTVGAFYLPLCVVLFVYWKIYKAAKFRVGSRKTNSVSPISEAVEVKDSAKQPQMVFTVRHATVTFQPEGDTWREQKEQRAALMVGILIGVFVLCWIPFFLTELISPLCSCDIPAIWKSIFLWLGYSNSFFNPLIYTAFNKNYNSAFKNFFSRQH
Sequence of Gamma-aminobutyric acid receptor subunit alpha-6 (Q16445 whole entry): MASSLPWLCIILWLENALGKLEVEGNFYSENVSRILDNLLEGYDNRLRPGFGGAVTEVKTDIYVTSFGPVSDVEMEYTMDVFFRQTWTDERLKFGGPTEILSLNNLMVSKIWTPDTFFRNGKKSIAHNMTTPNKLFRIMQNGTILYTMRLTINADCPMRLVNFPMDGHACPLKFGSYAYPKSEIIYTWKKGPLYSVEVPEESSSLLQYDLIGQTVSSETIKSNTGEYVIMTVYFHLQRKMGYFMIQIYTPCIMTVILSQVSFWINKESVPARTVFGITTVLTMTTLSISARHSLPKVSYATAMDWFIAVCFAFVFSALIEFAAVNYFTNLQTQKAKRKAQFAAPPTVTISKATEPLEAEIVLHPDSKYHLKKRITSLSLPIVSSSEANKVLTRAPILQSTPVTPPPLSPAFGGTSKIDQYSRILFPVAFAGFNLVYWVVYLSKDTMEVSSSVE
Sequence of 5-hydroxytryptamine receptor 2A (P14842 whole entry): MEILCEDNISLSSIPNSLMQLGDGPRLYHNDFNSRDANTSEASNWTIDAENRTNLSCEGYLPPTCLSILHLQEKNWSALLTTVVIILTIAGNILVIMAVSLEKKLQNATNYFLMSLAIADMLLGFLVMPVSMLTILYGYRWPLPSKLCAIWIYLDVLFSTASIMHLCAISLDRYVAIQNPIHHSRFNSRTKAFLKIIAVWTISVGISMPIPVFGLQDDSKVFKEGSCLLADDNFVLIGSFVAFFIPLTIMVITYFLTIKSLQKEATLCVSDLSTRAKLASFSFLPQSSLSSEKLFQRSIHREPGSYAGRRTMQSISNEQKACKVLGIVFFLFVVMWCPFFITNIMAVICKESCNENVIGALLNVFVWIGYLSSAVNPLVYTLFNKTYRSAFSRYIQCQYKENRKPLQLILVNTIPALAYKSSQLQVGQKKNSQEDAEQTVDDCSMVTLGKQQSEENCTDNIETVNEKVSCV
Sequence of Gamma-aminobutyric acid receptor subunit alpha-4 (P48169 whole entry): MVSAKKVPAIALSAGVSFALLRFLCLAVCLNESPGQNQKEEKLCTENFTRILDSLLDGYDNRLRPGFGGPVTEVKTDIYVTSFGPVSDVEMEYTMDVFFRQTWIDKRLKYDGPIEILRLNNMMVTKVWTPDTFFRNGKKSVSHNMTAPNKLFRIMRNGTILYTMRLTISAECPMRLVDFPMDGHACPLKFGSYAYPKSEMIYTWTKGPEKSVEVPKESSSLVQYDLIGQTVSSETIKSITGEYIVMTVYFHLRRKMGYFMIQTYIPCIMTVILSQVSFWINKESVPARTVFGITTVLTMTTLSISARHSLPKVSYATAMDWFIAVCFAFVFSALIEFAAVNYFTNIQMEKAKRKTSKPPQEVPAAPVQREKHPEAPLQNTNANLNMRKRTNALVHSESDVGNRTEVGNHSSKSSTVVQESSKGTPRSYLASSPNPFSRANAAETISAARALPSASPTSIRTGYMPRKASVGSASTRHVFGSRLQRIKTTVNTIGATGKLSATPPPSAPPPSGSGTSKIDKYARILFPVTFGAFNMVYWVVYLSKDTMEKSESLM

- Ki [1]: 9 nM
Structure (SMILES): COc1ccc(-c2cnc(N3CC(=O)c4c([nH]c5ccccc45)C3c3ccc4c(c3)OCO4)nc2)cc1OC (stereo not drawn)

- Ki [2]: 1500 nM
- Ki [3]: 1500 nM
Structure (SMILES): c1ccc2cc(-c3nccc4c3[nH]c3ccccc34)ccc2c1

Structure (SMILES): COc1cccc2[nH]c3c(c12)CCN=C3
- Ki [4]: 65 nM

- Ki [1]: 51 nM
Structure (SMILES): Nc1cccc(-c2ccc(C(=O)N3CCc4c([nH]c5ccccc45)C3c3ccc4c(c3)OCO4)o2)c1 (stereo not drawn)

- Ki [5]: 44 nM
Structure (SMILES): C=CC(=O)N1CCc2c(n(CCCCN3CCN(c4ccccc4OC)CC3)c3ccccc23)C1

- Ki [1]: 64 nM
Structure (SMILES): Nc1ccc(-c2ccc(C(=O)N3CCc4c([nH]c5ccccc45)C3c3ccc4c(c3)OCO4)o2)cc1 (stereo not drawn)

- IC50 [6]: 50 nM
Structure (SMILES): Oc1ccc2c3c([nH]c2c1)CN(CCCCc1ccccc1)CC3

- IC50 [6]: 140 nM
Structure (SMILES): Oc1ccc2[nH]c3c(c2c1)CCN(CCCCc1ccccc1)C3

Structure (SMILES): C[n+]1ccc2c(c1)[nH]c1ccccc12 [NORMELINONINE F]
- IC50 (Acetylcholinesterase [7]): 4100 nM
- IC50 (Cholinesterase): 800 nM

Structure (SMILES): c1ccc2c(c1)[nH]c1cnccc12 [NORHARMANE]
- IC50 (Acetylcholinesterase [8]): > 40000 nM
- IC50 [9]: 1600 nM
- IC50 [10]: > 1800 nM
- IC50 (Cholinesterase): > 40000 nM

Structure (SMILES): CCOC(=O)[n+]1ccc2c([nH]c3cc(OC)ccc32)c1C
- IC50 (Acetylcholinesterase [8]): 250 nM
- IC50 (Acetylcholinesterase [7]): 250 nM
- IC50 (Cholinesterase): 1500 nM

- Ki [2]: 1400 nM
- Ki [3]: 1400 nM
Structure (SMILES): c1ccc(-c2nccc3c2[nH]c2ccccc23)cc1

Structure (SMILES): CC(C)(C)OC(=O)c1cc2c(cn1)[nH]c1ccccc12
- Ki [11]: 19 nM
- Ki [12]: 0.7 nM
- IC50 [9]: 1 nM
- Ki [13]: 15 nM
- Ki [14]: 110 nM
- Ki [15]: 1000 nM
- Ki [16]: > 5000 nM

- IC50 [6]: 30000 nM
Structure (SMILES): O=C1CCC[C@@H]2c3[nH]c4ccccc4c3C[C@@H](CO)N12

Structure (SMILES): Cc1nccc2c1[nH]c1ccccc12 [HARMAN]
- IC50 (Acetylcholinesterase [8]): > 10000 nM
- IC50 [9]: 2500 nM
- IC50 [10]: > 1800 nM
- IC50 (Cholinesterase): > 10000 nM
- IC50 [17]: 29 nM
